Data on 2 molecules can be found in article PMC5509440 (Bioorganic & medicinal chemistry, 2017).

The IC50 is the midpoint of a concentration-inhibition curve.

Test [1] deals with T. b. brucei Lister 427 cells. Nature of the test: T. brucei cell viability analysis. The format is cell-based. The following applies: Trypanosoma brucei, 48 h, read-out: IC50 against T. brucei cells, bloodstream form T. b. brucei Lister 427, 48 hrs, MTS.
Test [2] concerns the target tubulin polymerization in T. brucei cells (Trypanosoma brucei rhodesiense, UniProt P04106+P04107). The format is cell-based. The following applies: different doses, 7 hrs, western blot with TAT-1 antibody.

Entries after “also recorded” stand apart in the source; their conditions may differ.

tubulin polymerization in T. brucei cells, sequence (P04106 whole entry): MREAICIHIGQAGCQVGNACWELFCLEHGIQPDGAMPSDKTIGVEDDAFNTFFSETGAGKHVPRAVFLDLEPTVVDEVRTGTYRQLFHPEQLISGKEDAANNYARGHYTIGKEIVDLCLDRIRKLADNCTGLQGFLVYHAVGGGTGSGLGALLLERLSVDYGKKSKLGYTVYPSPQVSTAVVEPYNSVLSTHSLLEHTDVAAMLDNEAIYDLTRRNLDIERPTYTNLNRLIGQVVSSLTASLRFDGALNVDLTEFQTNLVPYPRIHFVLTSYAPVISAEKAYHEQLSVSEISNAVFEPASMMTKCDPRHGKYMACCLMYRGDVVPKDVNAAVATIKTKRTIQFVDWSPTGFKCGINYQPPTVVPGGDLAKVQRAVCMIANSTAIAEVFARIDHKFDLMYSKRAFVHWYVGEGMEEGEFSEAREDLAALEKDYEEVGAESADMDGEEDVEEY
tubulin polymerization in T. brucei cells, sequence (P04107 whole entry): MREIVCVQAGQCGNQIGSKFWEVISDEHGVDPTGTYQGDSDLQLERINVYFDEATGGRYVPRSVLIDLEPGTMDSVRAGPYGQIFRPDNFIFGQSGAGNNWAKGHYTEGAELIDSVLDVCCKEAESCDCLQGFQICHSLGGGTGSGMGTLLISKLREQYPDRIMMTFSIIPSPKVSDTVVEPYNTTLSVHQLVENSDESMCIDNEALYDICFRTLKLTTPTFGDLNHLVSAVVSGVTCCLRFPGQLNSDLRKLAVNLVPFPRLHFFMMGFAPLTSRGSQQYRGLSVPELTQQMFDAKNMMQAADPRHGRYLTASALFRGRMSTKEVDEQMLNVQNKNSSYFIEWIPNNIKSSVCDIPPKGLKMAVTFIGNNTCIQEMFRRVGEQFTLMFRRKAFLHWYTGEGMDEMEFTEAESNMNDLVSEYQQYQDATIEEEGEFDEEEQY

Regarding `CN(c1ccc(NC(=O)c2cc(C(F)(F)F)cc(C(F)(F)F)c2)cc1OCc1ccc(C(F)(F)F)cc1)S(=O)(=O)Cc1ccccc1` [Compound 11, N-(4-(N-methyl-1-phenylmethylsulfonamido)-3-((4-(trifluoromethyl)benzyl)oxy)phenyl)-3,5-bis(trifluor omethyl)benzamide], the IC50 in test [1] is under 5 µM. Consider `CN(c1ccc(NC(=O)c2ccc(C#N)cc2)cc1OCc1ccc(C(F)(F)F)cc1)S(=O)(=O)Cc1ccccc1` [Compound 15, 4-cyano-N-(4-(N-methyl-1-phenylmethylsulfonamido)-3-((4-(trifluoromethyl)benzyl)oxy)phenyl)benzamide], for which the “amount of polymerized tubulin in T. brucei cells” value in test [2] is “decreased the amount of polymerized tubulin in a dose-dependent manner; also recorded: level of polymerized tubulin is significantly decreased”.
